The text below walks through data of US10561638B2, “Methods for treating dependence” (Biotie Therapies, Inc., priority 2007, dated 2020).

Data set [1] concerns rats. The experiment in a line: Chronic (10 day) dosing behavioral tests in rats. Conditions: for acoustic startle reactivity: 50 mg/kg. The procedure: The effects of chronic dosing of nepicastat in rats were examined. Between three and thirteen days prior to the first dosing day the rats were placed inside the startle apparatus and after a five minute acclimation period they were presented with a 118 dB noise burst on average once a minute (a variable inter-trial interval ranging between 30 and 90 seconds will be used) for 20 minutes. The startle responses were measured and a mean for the last twenty startle response was calculated for each rat.
The following behavioral tests were administered during and after chronic dosing; body core temperature, motor activity, acoustic startle reactivity, and pre-pulse inhibition of acoustic startle.
The animals were tested in an enclosed room with a white noise generator running Motor activity tests were conducted immediately after the body core temperature reading taken on dosing day ten (about 3 hours and 35 minutes after the morning daily dose of nepicastat, and SKF-102698, and 20 minutes prior to the daily administration of clonidine and d-amphetamine on dosing day ten). Motor activity tests were run for one hour. A diagnostic program was run on each of the motor activity chambers prior to each test session to assure that the photo beams and light sensors were operating properly. […] D-amphetamine was used as the positive control for this assay.
Rat body core temperatures were obtained by inserting the rectal probe 2 cm into the colon of each rat. Each rat's body core temperature was measured three times and the average of the three reading was calculated. Body core temperature readings were obtained immediately prior to the ten day chronic dosing schedule (to obtain a baseline), and three and half hour after the morning daily dose of nepicastat, and SKF-102698, and 15 minutes prior to the daily administration of clonidine and d-amphetamine, on dosing days one, five and ten. […] Both clonidine (an alpha2 agonist), and d-amphetamine (a dopamine releaser) were used as the positive controls for this assay.
Acoustic startle reactivity (a series of muscle contractions elicited by an intense burst of noise with a rapid onset), and pre-pulse inhibition (sensorimotor gating measured by analyzing any decrease in startle reactivity which occurs when a startling stimulus is immediately preceded by a non startling stimulus) were both measured in eight SR-Lab (San Diego Instruments, San Diego, Calif.) test stations. The rats were placed individually in a Plexiglas cylinder (10 cm diameter) which was housed in a ventilated sound-attenuating enclosure. Acoustic noise bursts (a broad band noise with a rise time and fall time of 1 msec) were presented via a speaker mounted 30 cm above the animal. Also, these speakers produced a 68 dB level of background noise throughout all test sessions. A piezoelectric accelerometer attached below the plexiglass cylinder transduced the subject's movement into a voltage which was then rectified and digitized (on a scale from 0 to 4095) by a PC computer equipped with SR-Lab software and interface assembly. A decibel meter was used to calibrate the speakers in each of the eight test station to ±1% of the mean. Additionally, a SR-Lab calibrating instrument was used to calibrate each of the eight startle detection apparatuses to ±2% of the mean. Startle reactivity and pre-pulse inhibition tests were run concurrently immediately alter the motor activity test (about 4 hours and 40 minutes after the morning daily injection of nepicastat, and SKF-102698, and 10 minutes after a supplemental administration of clonidine and d-amphetamine on dosing day ten).

Data set [2] addresses protein kinase (non-selective). The data set can be described thus: Enzyme selectivity assay. It counts as biochemical.
Data set [3] relates to SHRs. Conditions: rat, in vivo.
The test system of data set [4] is SHRs. The data set can be described thus: 30-day radio-telemetry study in SHRs. To be noted: for blood pressure: hydrochloride.
For data set [5] the following is noted: in vivo. The procedure: The pharmacokinetics of nepicastat after a single 40 mg dose was compared in men and women.
Data set [6] is described as follows: Toxicity studies in dogs (acute, 1-month). The format is in vivo. The procedure:
Dose selection was based on data from two studies with nepicastat. […] In a 1-month study, doses of 5, 20, or 80 mg/kg were administered to dogs orally once daily.

Data set [7] relates to thyroid uptake of 123I. The data set can be described thus: Thyroid uptake of 123I in humans. The format is in vivo, human.
In data set [8] the target is α1A adrenoceptors (Homo sapiens, UniProt P35348). The data set can be described thus: Radioligand binding assay. The procedure: (§1) The activity of nepicastat at twelve selected enzymes and receptors was determined using established assays. Binding data were analyzed by iterative curve-fitting to a four parameter logistic equation. Ki values were calculated from IC50 values using the Cheng-Prusoff equation. Enzyme inhibitory activity was expressed as IC50 (concentration required to produce 50% inhibition of enzyme activity).
(§2) The activity of nepicastat at eleven different enzymes was determined using established assays. The affinity of nepicastat for thirteen selected receptors was determined by radioligand binding assays using standard filtration techniques and membrane preparations. Binding data were analyzed by iterative curve fitting to a four parameter logistic equation. Ki values were calculated using the Cheng-Prusoff equation.

For data set [9], the target named is β2 adrenoceptors (Homo sapiens, UniProt P07550). The experiment in a line: Radioligand binding assay. The procedure: as §1, §2
Data set [10] deals with α2A adrenoceptors (Homo sapiens, UniProt P08913). The data set can be described thus: Radioligand binding assay. The procedure: as §1, §2
The target in data set [11] is β1 adrenoceptors (Homo sapiens, UniProt P08588). The experiment in a line: Radioligand binding assay. The procedure: as §1, §2
Data set [12] addresses μ opioid receptors (Homo sapiens, UniProt P35372). The data set can be described thus: Radioligand binding assay. The procedure:
as §1, §2

Data set [13] has as its target α1B adrenoceptors (Homo sapiens, UniProt P35368). The experiment in a line: Radioligand binding assay. The procedure:
as §1, §2

Data set [14] addresses α2B adrenoceptors (Homo sapiens, UniProt P18089). The data set can be described thus: Radioligand binding assay. The procedure: as §1, §2

“Also recorded” adds a separate entry of the source.

β2 adrenoceptors, sequence (P07550 whole entry): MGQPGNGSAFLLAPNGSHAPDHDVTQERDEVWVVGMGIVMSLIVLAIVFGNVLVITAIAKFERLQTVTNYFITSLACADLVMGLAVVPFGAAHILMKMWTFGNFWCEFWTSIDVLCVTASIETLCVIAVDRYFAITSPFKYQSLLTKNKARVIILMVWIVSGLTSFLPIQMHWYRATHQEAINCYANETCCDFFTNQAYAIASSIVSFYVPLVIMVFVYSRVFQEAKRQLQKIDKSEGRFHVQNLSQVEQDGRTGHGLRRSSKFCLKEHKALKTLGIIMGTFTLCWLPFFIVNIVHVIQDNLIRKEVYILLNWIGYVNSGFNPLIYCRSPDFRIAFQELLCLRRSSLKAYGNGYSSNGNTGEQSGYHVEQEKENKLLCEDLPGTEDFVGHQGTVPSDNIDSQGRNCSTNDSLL
α1A adrenoceptors, sequence (P35348 whole entry): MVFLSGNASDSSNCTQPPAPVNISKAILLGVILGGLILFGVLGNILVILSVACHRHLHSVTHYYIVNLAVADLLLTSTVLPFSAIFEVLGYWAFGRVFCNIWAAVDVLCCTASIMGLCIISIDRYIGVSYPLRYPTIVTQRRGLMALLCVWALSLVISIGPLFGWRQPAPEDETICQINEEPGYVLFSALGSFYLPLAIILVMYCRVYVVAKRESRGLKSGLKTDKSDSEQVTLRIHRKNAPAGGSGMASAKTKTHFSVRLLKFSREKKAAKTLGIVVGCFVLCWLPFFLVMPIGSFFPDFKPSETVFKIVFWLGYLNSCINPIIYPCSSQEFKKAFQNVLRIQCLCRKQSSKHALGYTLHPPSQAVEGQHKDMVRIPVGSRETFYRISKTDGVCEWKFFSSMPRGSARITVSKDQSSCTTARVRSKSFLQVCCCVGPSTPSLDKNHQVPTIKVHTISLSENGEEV
α2A adrenoceptors, sequence (P08913 whole entry): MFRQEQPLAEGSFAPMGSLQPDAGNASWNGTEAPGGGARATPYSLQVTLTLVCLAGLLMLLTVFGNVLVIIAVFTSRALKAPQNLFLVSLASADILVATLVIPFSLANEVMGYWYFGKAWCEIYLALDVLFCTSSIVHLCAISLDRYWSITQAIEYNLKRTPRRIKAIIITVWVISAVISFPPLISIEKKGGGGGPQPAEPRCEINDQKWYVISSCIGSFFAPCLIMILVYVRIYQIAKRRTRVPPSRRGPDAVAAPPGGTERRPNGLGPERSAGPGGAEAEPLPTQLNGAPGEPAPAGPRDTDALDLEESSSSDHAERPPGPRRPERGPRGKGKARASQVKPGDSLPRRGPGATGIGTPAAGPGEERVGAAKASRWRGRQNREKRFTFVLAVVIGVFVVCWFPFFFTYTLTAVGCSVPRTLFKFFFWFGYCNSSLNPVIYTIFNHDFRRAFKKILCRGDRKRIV
μ opioid receptors, sequence (P35372 whole entry): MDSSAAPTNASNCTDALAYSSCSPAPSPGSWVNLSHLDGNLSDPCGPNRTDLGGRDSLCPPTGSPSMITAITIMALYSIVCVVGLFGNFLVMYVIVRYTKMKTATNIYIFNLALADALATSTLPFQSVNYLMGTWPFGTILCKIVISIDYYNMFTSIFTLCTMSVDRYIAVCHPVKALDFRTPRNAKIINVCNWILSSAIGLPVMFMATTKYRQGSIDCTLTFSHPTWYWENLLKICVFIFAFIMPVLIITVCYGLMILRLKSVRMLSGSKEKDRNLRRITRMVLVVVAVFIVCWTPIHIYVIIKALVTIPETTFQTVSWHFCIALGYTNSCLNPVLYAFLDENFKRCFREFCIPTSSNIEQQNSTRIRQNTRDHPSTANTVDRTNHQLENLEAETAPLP
β1 adrenoceptors, sequence (P08588 whole entry): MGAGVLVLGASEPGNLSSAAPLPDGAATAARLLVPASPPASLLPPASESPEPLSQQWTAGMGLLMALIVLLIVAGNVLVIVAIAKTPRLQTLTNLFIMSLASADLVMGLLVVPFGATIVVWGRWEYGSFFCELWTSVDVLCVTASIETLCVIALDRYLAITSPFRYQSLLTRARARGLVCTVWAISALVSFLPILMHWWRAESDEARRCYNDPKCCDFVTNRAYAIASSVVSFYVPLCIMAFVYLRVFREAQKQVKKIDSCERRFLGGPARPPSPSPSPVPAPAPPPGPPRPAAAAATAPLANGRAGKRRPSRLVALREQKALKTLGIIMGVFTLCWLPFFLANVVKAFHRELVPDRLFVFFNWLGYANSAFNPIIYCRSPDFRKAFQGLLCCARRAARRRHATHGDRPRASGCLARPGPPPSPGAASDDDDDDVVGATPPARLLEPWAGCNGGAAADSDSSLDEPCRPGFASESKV
α1B adrenoceptors, sequence (P35368 whole entry): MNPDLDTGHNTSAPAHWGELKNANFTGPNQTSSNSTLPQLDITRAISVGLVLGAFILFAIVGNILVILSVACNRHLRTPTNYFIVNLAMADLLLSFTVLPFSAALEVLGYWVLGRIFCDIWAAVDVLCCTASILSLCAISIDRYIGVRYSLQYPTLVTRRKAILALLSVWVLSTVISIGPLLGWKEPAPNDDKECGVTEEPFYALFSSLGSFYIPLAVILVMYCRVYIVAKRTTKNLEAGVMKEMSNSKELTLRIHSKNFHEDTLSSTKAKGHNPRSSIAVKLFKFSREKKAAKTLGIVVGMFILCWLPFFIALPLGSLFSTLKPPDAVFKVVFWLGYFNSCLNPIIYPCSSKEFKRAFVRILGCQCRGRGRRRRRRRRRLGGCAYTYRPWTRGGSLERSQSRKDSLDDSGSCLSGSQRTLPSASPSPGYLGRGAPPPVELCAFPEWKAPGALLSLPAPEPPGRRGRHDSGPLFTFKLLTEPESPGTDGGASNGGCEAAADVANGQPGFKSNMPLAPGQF
α2B adrenoceptors, sequence (P18089 whole entry): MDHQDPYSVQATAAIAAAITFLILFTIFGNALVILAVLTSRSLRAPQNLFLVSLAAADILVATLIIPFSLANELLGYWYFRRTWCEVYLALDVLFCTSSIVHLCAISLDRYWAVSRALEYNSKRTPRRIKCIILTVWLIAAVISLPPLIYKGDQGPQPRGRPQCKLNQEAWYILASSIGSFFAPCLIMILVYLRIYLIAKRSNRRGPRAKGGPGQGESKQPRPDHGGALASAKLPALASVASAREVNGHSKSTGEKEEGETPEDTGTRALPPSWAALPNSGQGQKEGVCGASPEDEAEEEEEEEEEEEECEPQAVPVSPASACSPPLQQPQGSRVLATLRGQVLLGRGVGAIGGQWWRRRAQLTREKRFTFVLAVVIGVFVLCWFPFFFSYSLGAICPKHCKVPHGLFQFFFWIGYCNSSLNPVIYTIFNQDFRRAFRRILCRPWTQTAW

As to `Fc1cc(F)cc(Cn2cc[nH]c2=S)c1` [SKF-102698, reference compound], the pre-pulse inhibition entry in data set [1] (dosing day ten) is reported as “Neither d-amphetamine nor SKF-102698 was significantly different”. In [1] (dosing day ten, nepicastat 5, 15, 50, SKF-102698 50 mg/kg bid, clonidine 20 μg/kg, d-amphetamine 2 mg/kg bid), the “locomotor activity vs vehicle” value is listed as “significantly lower locomotor activity”. Further, in data set [1] (rat, in vivo), the pre-pulse inhibition entry is reported as “marginally higher percent prepulse inhibition” and the acoustic startle reactivity entry is reported as “significantly lower startle response compared to cyclodextrin”.
In the case of `Cl.NCc1c[nH]c(=S)n1[C@H]1CCc2c(F)cc(F)cc2C1` [nepicastat, (S)-5-Aminomethyl-1-(5,7-difluoro-1,2,3,4-tetrahydronaphth-2-yl)-2,3-dihydro-2-thioxo-1H-imidazole hydrochloride], the body core temperature result in data set [1] (rat, in vivo) was “unaffected”. For the same compound, in data set [1] (rat, in vivo), the pre-pulse inhibition result is “None of the nepicastat dose groups were significantly different”. Besides, the acoustic startle reactivity entry in data set [1] (rat, in vivo) is “significantly higher startle response than the SKF-102698”. In data set [2], the IC50 was more than 10 µM. In addition, the “motor activity (MA)” value in data set [3] is listed as “unaffected”. For the same compound, the “peak decrease in mean blood pressure” value in data set [4] (30 mg/kg/d, day 3) is recorded as −20 mmHg. Also, the “peak antihypertensive response on day 1” value in data set [4] (100 mg/kg, 21 hr after dosing) is recorded as −29 mmHg. The blood pressure result in data set [4] (3 and 10 mg/kg/d for 30 days) is “no significant effects; also recorded: did not significantly affect blood pressure”; in data set [4] (30 and 100 mg/kg/d for 30 days), “significantly lowered blood pressure; also recorded: significantly reduced blood pressure”. In data set [4] (30 and 100 mg/kg/d), the “persistence of blood pressure effect after a single dose” value stood at 24 h. For the same compound, in data set [4] (enalapril 1 mg/kg or nepicastat 30 mg/kg (Series III)), the “antihypertensive effect of mono-administration” value is listed as “only a small antihypertensive effect”. For the same compound, in data set [4] (four deaths in four series), the “relation of deaths to treatment” value was “appeared unrelated to the treatment of nepicastat”. In data set [4] (nepicastat 3-100 mg/kg), the “cardiac hypertrophy / left ventricular mass” value is on record as “did not affect the cardiac hypertrophy”. For the same compound, the “AUC, greater in women than in men” value in data set [5] (both, human, 40 mg) is “approximately 43%”. The “Cmax, greater in women than in men” value in data set [5] (both, human, 40 mg) is on record as “approximately 23%”. Further, the “Tmax for the radioactivity in plasma” value in data set [5] (human) lay in the range of 1 to 2 h. The “terminal T1/2 for total radioactivity in plasma” value in [5] (human) was approximately 100 h. The “Cmax or AUC, fast vs slow acetylator phenotype” value in data set [5] is on record as “No significant differences”. The “T½, women vs men” value in data set [5] is given as “longer in women than in men”. Moreover, the “accumulation with multiple dosing” value in data set [5] is given as “no significant accumulation”. Moreover, the 1-month toxicity result in [6] (80 mg/kg/day orally once daily) is “Clinical signs of toxicity were present”. In addition, the acute toxicity entry in data set [6] (single oral dose of 400 mg/kg) was “transient clinical signs of toxicity”. The “thyroid uptake of 123I vs placebo” value in [7] (5, 40 and 100 mg) is given as “no differences from placebo”. In addition, the “reduction of thyroid uptake of 123I vs placebo” value in [7] (single 200 mg dose) is “significantly greater than placebo”. In addition, the Ki in [8], in data set [9], in data set [10], in data set [11], in data set [12] and in data set [13] was more than 10 µM throughout. For the same compound, in data set [14], the Ki was more than 10 µM.
